Experimental data published in ChEMBL document CHEMBL1697781, “Assessment of the health effects of chemicals in humans: II. Construction of an adverse effects database for QSAR modeling” (Curr Drug Discov Technol, 2004).

What was measured:
Conditions in all cases: human; call rule not given here
Hepatotoxicity [1] = test: FDA HLAED, gamma-glutamyl transferase (GGT) increase
Hepatotoxicity [2] = test: FDA HLAED, liver enzyme composite activity
Hepatotoxicity [3] = test: FDA HLAED, serum glutamic pyruvic transaminase (SGPT) increase
Hepatotoxicity [4] = test: FDA HLAED, serum glutamic oxaloacetic transaminase (SGOT) increase
Hepatotoxicity [5] = test: FDA HLAED, lactate dehydrogenase (LDH) increase
Hepatotoxicity [6] = test: FDA HLAED, alkaline phosphatase increase
Wherever GGT Increase - Index Value is given: reference of the scale not given here.
Wherever LDH Increase - Index Value is given: reference of the scale not given here.

SMILES	GGT Increase - Activity Score (Hepatotoxicity [1])	GGT Increase - Index Value (Hepatotoxicity [1])	GGT Increase - Number of Reports (Hepatotoxicity [1])	Composite Activity - Active (Hepatotoxicity [2]; Liver)	Composite Activity - Marginal (Hepatotoxicity [2]; Liver)	SGPT Increase - Activity Score (Hepatotoxicity [3])	SGPT Increase - Index Value (Hepatotoxicity [3])	SGPT Increase - Number of Reports (Hepatotoxicity [3])	SGOT Increase - Activity Score (Hepatotoxicity [4])	SGOT Increase - Index Value (Hepatotoxicity [4])	SGOT Increase - Number of Reports (Hepatotoxicity [4])	LDH Increase - Activity Score (Hepatotoxicity [5])	LDH Increase - Index Value (Hepatotoxicity [5])	LDH Increase - Number of Reports (Hepatotoxicity [5])	Alkaline Phosphatase Increase - Activity Score (Hepatotoxicity [6])	Alkaline Phosphatase Increase - Index Value (Hepatotoxicity [6])	Alkaline Phosphatase Increase - Number of Reports (Hepatotoxicity [6])	Composite Activity - Active (Hepatotoxicity [2])	Composite Activity - Marginal (Hepatotoxicity [2])	Composite Activity - Score (Hepatotoxicity [2])	other results
CC1(C)S[C@@H]2[C@H](NC(=O)[C@H](NC(=O)N3CCN(S(C)(=O)=O)C3=O)c3ccccc3)C(=O)N2[C@H]1C(=O)O [MEZLOCILLIN]	Inactive	0	< 4	0	0	Inactive	0	< 4	Inactive	0	< 4	Inactive	0	< 4	Inactive	1.9	< 4				Composite Activity - Score (Hepatotoxicity [2]; Liver): Inactive
O=c1[nH]c(=O)n([C@H]2C[C@H](O)[C@@H](CO)O2)cc1C(F)(F)F [TRIFLURIDINE]	Inactive	0	< 4			Inactive	0	< 4	Inactive	0	< 4	Inactive	0	< 4	Inactive	0	< 4	0	0	Inactive	
CO[C@@]1(NC(=O)Cc2cccs2)C(=O)N2C(C(=O)O)=C(COC(N)=O)CS[C@@H]21 [CEFOXITIN]	Inactive	0	< 4			Inactive	0	< 4	Inactive	0	< 4	Inactive	0	< 4	Inactive	0	< 4	0	0	Inactive	
Nc1nc(F)nc2c1ncn2[C@@H]1O[C@H](CO)[C@@H](O)[C@@H]1O [FLUDARABINE]	Inactive	0	< 4			Active	10.7	>= 4	Active	9.2	>= 4	Active	18.3	>= 4	Active	9.2	>= 4	4	0	Active	
O=C(c1ccccc1)c1ccc2n1CCC2C(=O)O (stereo unspecified) [KETOROLAC]	Inactive	0.5	< 4			Inactive	0.6	>= 4	Inactive	0.9	>= 4	Inactive	0.5	>= 4	Inactive	1.4	>= 4	0	0	Inactive	
CC(NCCc1ccc(O)cc1)C(O)c1ccc(O)cc1 (stereo unspecified) [RITODRINE]	Inactive	0	< 4			Active	4.2	>= 4	Active	4.2	>= 4	Inactive	0	< 4	Inactive	1.1	< 4	2	0	Active	
CCCCC[C@H](O)/C=C/[C@H]1[C@H](O)CC(=O)[C@@H]1CCCCCCC(=O)O [ALPROSTADIL]	Inactive	0	< 4			Inactive	0	< 4	Inactive	0	< 4	Inactive	0	< 4	Inactive	0	< 4	0	0	Inactive	
FC(F)OC(F)C(F)(F)F (stereo unspecified)	Inactive	0.5	< 4			Inactive	0.8	< 4	Inactive	1.3	>= 4	Inactive	0.5	< 4	Inactive	0.3	< 4	0	0	Inactive	
CC(C)(C)NC(=O)[C@@H]1C[C@@H]2CCCC[C@@H]2CN1C[C@@H](O)[C@H](Cc1ccccc1)NC(=O)[C@H](CC(N)=O)NC(=O)c1ccc2ccccc2n1	Inactive	0	< 4	0	0	Inactive	0	< 4	Inactive	0	< 4	Inactive	0	< 4	Inactive	0	< 4				Composite Activity - Score (Hepatotoxicity [2]; Liver): Inactive
CCCNCC(O)COc1ccccc1C(=O)CCc1ccccc1 (stereo unspecified) [PROPAFENONE]	Inactive	2.9	< 4	3	0	Active	4.7	>= 4	Active	5.7	>= 4	Inactive	1.9	< 4	Active	7.6	>= 4				Composite Activity - Score (Hepatotoxicity [2]; Liver): Active
CNCCCC12CCC(c3ccccc31)c1ccccc12 [MAPROTILINE]	Inactive	0	< 4	0	0	Inactive	0.3	< 4	Inactive	0.3	< 4	Inactive	0	< 4	Inactive	0.5	< 4				Composite Activity - Score (Hepatotoxicity [2]; Liver): Inactive
CC(NC(C)(C)C)C(=O)c1cccc(Cl)c1 (stereo unspecified) [BUPROPION]	Inactive	0	< 4			Inactive	0	< 4	Inactive	0	< 4	Inactive	0	< 4	Inactive	0	< 4	0	0	Inactive	
